In US8957062B2, “Substituted cyclopropyl compounds, compositions containing such compounds and methods of treatment” (Merck Sharp & Dohme Corp., priority 2011, dated 2015) one finds EC50 data, which are given here for 23 compounds.

The EC50 is the midpoint of the concentration-response curve.

Read-outs that look alike come from different tables or passages of the source.

The target of the assay is T1, human GPR119 (Homo sapiens, UniProt Q8TDV5).
T1 sequence (Q8TDV5 1-308 limits assumed): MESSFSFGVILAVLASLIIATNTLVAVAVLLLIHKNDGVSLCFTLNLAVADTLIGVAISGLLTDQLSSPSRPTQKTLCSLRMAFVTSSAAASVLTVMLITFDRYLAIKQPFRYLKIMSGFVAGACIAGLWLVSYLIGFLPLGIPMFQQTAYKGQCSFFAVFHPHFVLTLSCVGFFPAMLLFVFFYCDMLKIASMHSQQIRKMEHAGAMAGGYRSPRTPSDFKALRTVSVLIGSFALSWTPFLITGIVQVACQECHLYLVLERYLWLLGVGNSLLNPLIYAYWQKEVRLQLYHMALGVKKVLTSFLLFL
Description: Measurement of GPR119 signaling (cAMP assay) in cells stably transfected with human GPR119. The assay is classed as cell-based. Particulars: cAMP stimulation, human GPR119, read-out: GPR119 Human EC50. Background: Cyclic AMP is a second messenger, typically raised through Gs and lowered through Gi signalling.

Turning to `COCc1noc(N2CCC([C@H]3C[C@H]3CCOc3ccc(CC(=O)N4CCOCC4)c(F)c3)CC2)n1` [Example 202], the EC50 (table column) was 9.8 nM.

Consider `COCc1noc(N2CCC([C@H]3C[C@H]3CCOc3ccc(CC(=O)N4CCC[C@@H]4C(F)(F)F)c(F)c3)CC2)n1` [Example 203], for which, for the setting “table column”, the EC50 amounted to 5.1 nM.

With `COCc1noc(N2CCC([C@H]3C[C@H]3CCOc3ccc(CC(=O)N4CCC[C@H]4C(F)(F)F)c(F)c3)CC2)n1` [Example 204], where the note is “table column”, the EC50 was 3.6 nM.

Turning to `COCc1noc(N2CCC([C@H]3C[C@H]3CCOc3cc(F)c(CC(=O)N4CCC4)c(F)c3)CC2)n1` [Example 205], under “table column”, the EC50 is 1.2 nM.

As to `COCc1noc(N2CCC([C@H]3C[C@H]3CCOc3cc(F)c(CC(=O)N(C)C)c(F)c3)CC2)n1` [Example 206], where the note is “table column”, the half-maximal effective concentration (EC50) was 2.5 nM.

As to `COCc1noc(N2CCC([C@H]3C[C@H]3CCOc3cc(F)c(CC(=O)N4CCOCC4)c(F)c3)CC2)n1` [Example 207], for the setting “table column”, the EC50 is 3.1 nM.

For `CC(C)c1noc(N2CCC([C@H]3C[C@H]3CCOc3ccc(S(C)(=O)=O)cn3)CC2)n1` [Example 209], the EC50 (table column) stood at 2 nM.

In the case of `CS(=O)(=O)c1ccc(OCC[C@@H]2C[C@@H]2C2CCN(c3nc(C4CC4)no3)CC2)nc1` [Example 210], the EC50 (table column) was found to be 6 nM.

Consider `CCCc1noc(N2CCC([C@H]3C[C@H]3CCOc3ccc(S(C)(=O)=O)cn3)CC2)n1` [Example 211], for which the EC50 (table column) came to 8 nM.

For `CS(=O)(=O)c1ccc(OCC[C@@H]2C[C@@H]2C2CCN(c3nc(C4CCC4)no3)CC2)nc1` [Example 212], the EC50 (table column) was found to be 4.8 nM.

Take `Cc1noc(N2CCC([C@H]3C[C@H]3CCOc3ccc(S(C)(=O)=O)cn3)CC2)n1` [Example 213]: the concentration for a half-maximal effect (EC50) (table column) turned out to be 11 nM.

`CCc1noc(N2CCC([C@H]3C[C@H]3CCOc3ccc(S(C)(=O)=O)cn3)CC2)n1` [Example 214]: under “table column”, the EC50 was found to be 3.2 nM.

For `COC(C)c1noc(N2CCC([C@H]3C[C@H]3CCOc3ccc(S(C)(=O)=O)cn3)CC2)n1` (some centres unmarked) [Example 215], the EC50 (table column) was found to be 5.8 nM.

Consider `COCCc1noc(N2CCC([C@H]3C[C@H]3CCOc3ccc(S(C)(=O)=O)cn3)CC2)n1` [Example 216], for which the half-maximal effective concentration (EC50) (table column) came out at 26 nM.

Turning to `CS(=O)(=O)c1ccc(OCC[C@@H]2C[C@@H]2C2CCN(c3nc(COCC(F)(F)F)no3)CC2)nc1` [Example 217], where the note is “table column”, the 50% effective concentration (EC50) came out at 7.8 nM.

With `CCOCc1noc(N2CCC([C@H]3C[C@H]3CCOc3ccc(S(C)(=O)=O)cn3)CC2)n1` [Example 218], the half-maximal effective concentration (EC50) (table column) was 14 nM.

Consider `COCc1noc(N2CCC([C@H]3C[C@H]3CCOc3ccc(S(C)(=O)=O)cc3)CC2)n1` [Example 221], for which, where the note is “table column”, the EC50 is 3.4 nM.

As for `COCc1noc(N2CCC([C@H]3C[C@H]3CCOc3ccc(S(C)(=O)=O)c(F)c3)CC2)n1` [Example 222], the EC50 (table column) was 0.9 nM.

In the case of `COCc1noc(N2CCC([C@H]3C[C@H]3CCOc3ccc(-n4cncn4)cc3)CC2)n1` [Example 223], the EC50 (table column) was 7.2 nM.

On to `COCc1noc(N2CCC([C@H]3C[C@H]3CCOc3ccc(-c4nnn(C)n4)cc3)CC2)n1` [Example 224], for which, where the note is “table column”, the EC50 was determined as 6.4 nM.

In the case of `Cc1cc(-n2cnnn2)cnc1OCC[C@@H]1C[C@@H]1C1CCN(c2nc(C(C)C)no2)CC1` [Example 225, 2-(2-{(1S,2R)-2-[1-(3-isopropyl-1,2,4-oxidiazol-5-yl)piperidin-4-yl]cyclopropyl}ethoxy]-3-methyl-5-(1H-tetrazol-1-yl)pyridine], where the note is “stated in the example text”, the EC50 was determined as 0.1 nM.

For `COCc1noc(N2CCC([C@H]3C[C@H]3CCOc3ncc(-n4cnnn4)cc3C)CC2)n1` [Example 226], the EC50 (table column) worked out at 2.3 nM.

As to `COC(C)c1noc(N2CCC([C@H]3C[C@H]3CCOc3ncc(-n4cnnn4)cc3C)CC2)n1` (some centres unmarked) [Example 227], under “table column”, the concentration giving a half-maximal response (EC50) stood at 0.9 nM.
